According to patent publication US10597390B2, “Indoles for use in influenza virus infection” (Janssen Sciences Ireland UC, priority 2014, dated 2020):

Tests used:
[1] = tested on: influenza virus A/Taiwan/1/86 (H1N1); assay: organism not typed; type: cell-based; settings: MDCK, 72 h, CPE in MDCK cells, three days post-virus exposure, ATPlite
in vitro = settings: dog, TOX MDCK CC50

Compound: Cc1cc(F)c2[nH]cc(-c3ncc(F)c(N[C@@H]4CCC[C@@H](NC(=O)N5CCCC5)C4)n3)c2c1 (racemic) [Compound 20]
- IC50 [1]: 12 nM
- melting point: 94 °C
- CC50 at 3 days (in vitro): 15100 nM

Compound: CC1(C(CC(=O)O)Nc2nc(-c3c[nH]c4c(F)cc(F)cc34)c(C#N)cc2F)CCCC1 (stereo not drawn) [Compound 244, 3-((5-cyano-6-(5,7-difluoro-1H-indol-3-yl)-3-fluoropyridin-2-yl)amino)-3-(1-methylcyclopentyl)propanoic Acid]
- IC50 [1]: 5 nM
- melting point: 150 °C
- CC50 at 3 days (in vitro): 60 nM

Compound: CC[C@@]1(C(=O)O)CCCC[C@H]1Nc1nc(-c2c[nH]c3c(F)cc(F)cc23)c(C#N)cc1F (relative stereo) [Compound 247, (trans)-2-((5-cyano-6-(5,7-difluoro-1H-indol-3-yl)-3-fluoropyridin-2-yl)-amino)-1-ethylcyclohexanecarboxylic Acid]
- IC50 [1]: 50 nM
- melting point: 254.9 °C
- CC50 at 3 days (in vitro): 400 nM

Compound: O=C(N[C@@H]1CCC[C@H](Nc2nc(-c3c[nH]c4c(F)cc(F)cc34)ncc2F)C1)C1CCCN1 (stereo partly drawn) [Compound 139]
- IC50 [1]: 2000 nM
- melting point: 208.1 °C
- CC50 at 3 days (in vitro): 11500 nM

Compound: Cn1ccc(C(=O)N[C@@H]2CCC[C@@H](Nc3nc(-c4c[nH]c5c(F)cc(F)cc45)c(C#N)cc3F)C2)n1 (racemic) [Compound 205]
- IC50 [1]: 4 nM
- melting point: 103 °C
- CC50 at 3 days (in vitro): > 25000 nM

Compound: O=C(N[C@@H]1CCC[C@H](Nc2nc(-c3c[nH]c4c(F)cc(Cl)cc34)ncc2F)C1)c1ncccn1 [Compound 46]
- IC50 [1]: 5 nM
- melting point: 286.8 °C
- CC50 at 3 days (in vitro): 4800 nM

Compound: Nc1nc(C(=O)N[C@@H]2CCC[C@H](Nc3nc(-c4c[nH]c5c(F)cc(Cl)cc45)ncc3F)C2)cs1 [Compound 76]
- IC50 [1]: 0.6 nM
- melting point: 184.8 °C
- CC50 at 3 days (in vitro): 2500 nM

Compound: CCn1ccnc1C(=O)N[C@@H]1CCC[C@H](Nc2nc(-c3c[nH]c4c(F)cc(Cl)cc34)ncc2F)C1 [Compound 72]
- IC50 [1]: 3 nM
- melting point: 156.4 °C
- CC50 at 3 days (in vitro): 2800 nM

Compound: Cc1cccnc1C(=O)N[C@@H]1CCC[C@H](Nc2nc(-c3c[nH]c4c(F)cc(Cl)cc34)ncc2F)C1 [Compound 32]
- IC50 [1]: 9 nM
- melting point: 226.5 °C
- CC50 at 3 days (in vitro): > 22000 nM

Compound: COc1ccnc(C(=O)N[C@@H]2CCC[C@H](Nc3nc(-c4c[nH]c5c(F)cc(F)cc45)ncc3F)C2)c1 [Compound 105]
- IC50 [1]: 2 nM
- melting point: 233.8 °C
- CC50 at 3 days (in vitro): 5600 nM

Compound: CC(C)(c1ccccn1)C(CC(=O)O)Nc1nc(-c2c[nH]c3c(F)cc(F)cc23)c(C#N)cc1F (stereo not drawn) [Compound 237, 3-((5-cyano-6-(5,7-difluoro-1H-indol-3-yl)-3-fluoropyridin-2-yl)amino)-4-methyl-4-(pyridin-2-yl)pentanoic Acid]
- IC50 [1]: 3 nM
- melting point: 230.8 °C
- CC50 at 3 days (in vitro): 400 nM

Compound: CC1([C@@H](CC(=O)O)Nc2nc(-c3c[nH]c4c(F)cc(F)cc34)c(C#N)cc2F)CCCC1 [Compound 245]
- IC50 [1]: 3 nM
- melting point: 289.6 °C
- CC50 at 3 days (in vitro): 700 nM

Compound: Cn1ccnc1C(=O)N[C@H]1CCC[C@@H](Nc2nc(-c3c[nH]c4c(F)cc(F)cc34)ncc2F)C1 [Compound 83]
- IC50 [1]: 2 nM
- melting point: 166.6 °C
- CC50 at 3 days (in vitro): 9600 nM

Compound: CN(C)C(=O)C(C)(C)C(CC(=O)O)Nc1nc(-c2c[nH]c3c(F)cc(F)cc23)ncc1F (stereo not drawn) [Compound 251]
- IC50 [1]: 150 nM
- melting point: 253 °C
- CC50 at 3 days (in vitro): > 25000 nM

Compound: Cc1cnc(C(=O)N[C@@H]2CCC[C@H](Nc3nc(-c4c[nH]c5c(F)cc(F)cc45)ncc3F)C2)n1C [Compound 144]
- IC50 [1]: 4 nM
- melting point: 204.9 °C
- CC50 at 3 days (in vitro): 7200 nM

Compound: O=C(N[C@@H]1CCC[C@H](Nc2nc(-c3c[nH]c4c(F)cc(F)cc34)ncc2F)C1)c1cscn1 [Compound 154]
- IC50 [1]: 2 nM
- melting point: 266.8 °C
- CC50 at 3 days (in vitro): 15900 nM

Compound: Cc1ccnc(C(=O)N[C@@H]2CCC[C@H](Nc3nc(-c4c[nH]c5c(F)cc(F)cc45)ncc3F)C2)c1 [Compound 110]
- IC50 [1]: 3 nM
- melting point: 255 °C
- CC50 at 3 days (in vitro): 9600 nM

Compound: Cc1cc(F)c2[nH]cc(-c3ncc(F)c(N[C@H](CC(=O)O)C(C)(C)C)n3)c2c1 [Compound 168]
- IC50 [1]: > 25000 nM
- melting point: 132 °C
- CC50 at 3 days (in vitro): 10300 nM

Compound: Nc1cccc(C(=O)N[C@@H]2CCC[C@H](Nc3nc(-c4c[nH]c5c(F)cc(Cl)cc45)ncc3F)C2)n1 [Compound 38]
- IC50 [1]: 3 nM
- melting point: 268.4 °C
- CC50 at 3 days (in vitro): 2700 nM

Compound: O=C(N[C@@H]1CCC[C@H](Nc2nc(-c3c[nH]c4c(F)cc(Cl)cc34)ncc2F)C1)c1ncccc1O [Compound 34]
- IC50 [1]: 8 nM
- melting point: 242.2 °C
- CC50 at 3 days (in vitro): 8700 nM

Compound: Cn1nncc1C(=O)N[C@@H]1CCC[C@H](Nc2nc(-c3c[nH]c4c(F)cc(Cl)cc34)ncc2F)C1 [Compound 49]
- IC50 [1]: 9 nM
- melting point: 249.6 °C
- CC50 at 3 days (in vitro): > 25000 nM

Compound: Cn1cnc(C(=O)N[C@@H]2CCC[C@H](Nc3nc(-c4c[nH]c5c(F)cc(C(F)(F)F)cc45)ncc3F)C2)c1 (racemic) [Compound 264]
- IC50 [1]: 19 nM
- melting point: 266.5 °C
- CC50 at 3 days (in vitro): 3800 nM

Compound: O=C(N[C@@H]1CCC[C@H](Nc2nc(-c3c[nH]c4c(F)cc(F)cc34)ncc2F)C1)c1nccs1 [Compound 109]
- IC50 [1]: 2 nM
- melting point: 277 °C
- CC50 at 3 days (in vitro): 6100 nM

Compound: Cn1nc(C(=O)N[C@@H]2CCC[C@H](Nc3nc(-c4c[nH]c5c(F)cc(Cl)cc45)ncc3F)C2)cc1N [Compound 80]
- IC50 [1]: 4 nM
- melting point: 174.8 °C
- CC50 at 3 days (in vitro): 3900 nM

Compound: Cc1cc(F)c2[nH]cc(-c3ncc(F)c(N[C@@H](CC(=O)O)C(C)(C)c4ccn(C)n4)n3)c2c1 [Compound 235]
- IC50 [1]: 190 nM
- melting point: > 260 °C
- CC50 at 3 days (in vitro): > 25000 nM

Compound: Cc1sc(N)nc1C(=O)N[C@@H]1CCC[C@H](Nc2nc(-c3c[nH]c4c(F)cc(F)cc34)ncc2F)C1 [Compound 150]
- IC50 [1]: 3 nM
- melting point: 248.4 °C
- CC50 at 3 days (in vitro): 4800 nM

Compound: Cc1cn(C)nc1C(=O)N[C@@H]1CCC[C@H](Nc2nc(-c3c[nH]c4c(F)cc(Cl)cc34)ncc2F)C1 [Compound 73]
- IC50 [1]: 9 nM
- melting point: 248.4 °C
- CC50 at 3 days (in vitro): > 25000 nM

Compound: Cc1nc(C(=O)N[C@@H]2CCC[C@H](Nc3nc(-c4c[nH]c5c(F)cc(Cl)cc45)ncc3F)C2)no1 [Compound 50]
- IC50 [1]: 24 nM
- melting point: 276.7 °C
- CC50 at 3 days (in vitro): > 25000 nM

Compound: O=C(N[C@@H]1CCC[C@H](Nc2nc(-c3c[nH]c4c(F)cc(Cl)cc34)ncc2F)C1)c1nnn[nH]1 [Compound 81]
- IC50 [1]: 39 nM
- melting point: 275.1 °C
- CC50 at 3 days (in vitro): > 25000 nM

Compound: O=C(N[C@H]1CCC[C@@H](Nc2nc(-c3c[nH]c4c(F)cc(F)cc34)ncc2F)C1)c1cncs1 [Compound 84]
- IC50 [1]: 3 nM
- melting point: 295.2 °C
- CC50 at 3 days (in vitro): > 25000 nM

Compound: Nc1nc(C(=O)N[C@@H]2CCC[C@H](Nc3nc(-c4c[nH]c5c(F)cc(F)cc45)ncc3F)C2)cs1 [Compound 145]
- IC50 [1]: 2 nM
- melting point: 178.1 °C
- CC50 at 3 days (in vitro): 6800 nM

Compound: Cn1nncc1C(=O)N[C@@H]1CCC[C@H](Nc2nc(-c3c[nH]c4c(F)cc(F)cc34)ncc2F)C1 [Compound 119]
- IC50 [1]: 5 nM
- melting point: 285 °C
- CC50 at 3 days (in vitro): > 50000 nM

Compound: CC1(C(CC(N)=O)Nc2nc(-c3c[nH]c4c(F)cc(F)cc34)c(C#N)cc2F)CCCC1 (stereo not drawn) [Compound 246]
- IC50 [1]: 610 nM
- melting point: 270.1 °C
- CC50 at 3 days (in vitro): 6900 nM

Compound: O=C(N[C@@H]1CCC[C@H](Nc2nc(-c3c[nH]c4c(F)cc(Cl)cc34)ncc2F)C1)c1ccsc1 [Compound 37]
- IC50 [1]: 1 nM
- melting point: > 300 °C
- CC50 at 3 days (in vitro): 2400 nM

Compound: Nc1nccc(C(=O)N[C@@H]2CCC[C@H](Nc3nc(-c4c[nH]c5c(F)cc(Cl)cc45)ncc3F)C2)n1 [Compound 65]
- IC50 [1]: 3 nM
- melting point: 261.7 °C
- CC50 at 3 days (in vitro): > 25000 nM

Compound: O=C(O)c1ccccc1C(=O)N[C@@H]1CCC[C@H](Nc2nc(-c3c[nH]c4c(F)cc(F)cc34)ncc2F)C1 (relative stereo) [Compound 224, 2-(((1R*,3S*)-3-((2-(5,7-difluoro-1H-indol-3-yl)-5-fluoropyrimidin-4-yl)amino)cyclohexyl)carbamoyl)benzoic Acid]
- IC50 [1]: 160 nM
- melting point: 201.5 °C
- CC50 at 3 days (in vitro): > 5000 nM

Compound: O=C(N[C@@H]1CCC[C@H](Nc2nc(-c3c[nH]c4c(F)cc(F)cc34)ncc2F)C1)c1csc(C(=O)O)n1 [Compound 155]
- IC50 [1]: 3 nM
- melting point: 260.8 °C
- CC50 at 3 days (in vitro): > 22800 nM

Compound: Cn1ncnc1C(=O)N[C@@H]1CCC[C@H](Nc2nc(-c3c[nH]c4c(F)cc(Cl)cc34)ncc2F)C1 [Compound 75]
- IC50 [1]: 12 nM
- melting point: > 300 °C
- CC50 at 3 days (in vitro): > 25000 nM

Compound: Cc1cc(F)c2[nH]cc(-c3ncc(F)c(N[C@@H]4CCC[C@@H](NC(=O)c5cn(C)cn5)C4)n3)c2c1 (racemic) [Compound 196]
- IC50 [1]: 21 nM
- melting point: > 250 °C
- CC50 at 3 days (in vitro): 10300 nM

Compound: O=C(N[C@@H]1CCC[C@H](Nc2nc(-c3c[nH]c4c(F)cc(F)cc34)ncc2F)C1)c1c[nH]nn1 [Compound 111]
- IC50 [1]: 0.6 nM
- melting point: 265 °C
- CC50 at 3 days (in vitro): 9000 nM

Compound: Cc1cc(F)c2[nH]cc(-c3ncc(F)c(N[C@H]4CCC[C@@H](NC(=O)c5ncsc5C)C4)n3)c2c1 (racemic) [Compound 193]
- IC50 [1]: 5 nM
- melting point: 234 °C
- CC50 at 3 days (in vitro): 3600 nM

Compound: O=C(N[C@@H]1CCC[C@H](Nc2nc(-c3c[nH]c4c(F)cc(F)cc34)ncc2F)C1)c1ncc[nH]1 [Compound 127]
- IC50 [1]: 1 nM
- melting point: > 300 °C
- CC50 at 3 days (in vitro): > 100000 nM

Compound: Cc1cc(F)c2[nH]cc(-c3nc(N[C@@H]4CCC[C@@H](NC(=O)c5nc(C)oc5C)C4)c(F)cc3C#N)c2c1 (racemic) [Compound 200]
- IC50 [1]: 160 nM
- melting point: > 250 °C
- CC50 at 3 days (in vitro): > 25000 nM
